This is an account of results in article PMC8070564, “Synthesis and Antiviral Activity of Camphene Derivatives against Different Types of Viruses” (Molecules, 2021).

Each structure is given as a SMILES string. Read-outs that look alike come from different tables or passages of the source.

Series [1] relates to vaccinia virus (strain Copenhagen). Nature of the series: microbe, parasite or virus in culture. In kind it is cell-based. As to conditions: Orthopoxvirus vaccinia, Vero, read-out: IC50 VV.
Series [2] in a line: in vitro. As to conditions: African green monkey.
Series [3] has as its system influenza virus A/Puerto Rico/8/34 (H1N1). The series can be described thus: microbe, parasite or virus in culture. It is filed as cell-based. The settings on record: H1N1, MDCK, read-out: IC50 H1N1.
A short description of series [4]: in vitro. The settings on record: dog.
Series [5] is described as follows: in vitro. The settings on record: human.
The test system of series [6] is rVSV-ΔG-EboV-GP. The series can be described thus: microbe, parasite or virus in culture. The settings on record: Zaire ebolavirus, HEK-293T, read-out: IC50 EboV-GP. In kind it is cell-based, Ebola pseudotype viruses.
Series [7] relates to rVSV-ΔG-G. Nature of the series: microbe, parasite or virus in culture. In kind it is cell-based. The settings on record: Vesicular stomatitis virus, HEK-293T, read-out: IC50 VSV-G.
The subject of series [8] is EBOV (strain Zaire). Nature of the series: microbe, parasite or virus in culture. It is filed as cell-based, Ebola virus (EBOV). The settings on record: for IC50: read-out: IC50 EBOV.
The test system of series [9] is rVSV-ΔG-Gn-Gc. Nature of the series: microbe, parasite or virus in culture. It is filed as cell-based, Hantaan virus strain 76–118. The settings on record: Orthohantavirus hantanense, HEK-293T, read-out: IC50 rVSV-ΔG-Gn-Gc.
Series [10] can be described thus: in vitro. The settings on record: African green monkey. This is another data set of the same source.
Series [11] in a line: Cytotoxicity in HEK293T cells (Table 5). The settings on record: human.
In series [12] the test system is rVSV-ΔG-MarV-GP. Nature of the series: organism not typed. As to conditions: HEK-293T, read-out: IC50 MarV-GP. It is filed as cell-based, Marburg pseudotype viruses.
The subject of series [13] is influenza virus A/Puerto Rico/8/34 (H1N1). As to conditions: cited from earlier work.
The test system of series [14] is Ebola virus (EBOV) (strain Zaire). The settings on record: cited from earlier work.
Series [15] has as its system Marburg virus (MARV) (strain Popp). The settings on record: cited from earlier work.
Series [16] concerns vaccinia virus (VV). The settings on record: cited from earlier work.

As usually defined, the IC50 is the midpoint of a concentration-inhibition curve. In the case of `O=C(NN1C(=O)[C@@H]2[C@@H]3C=C[C@@H]([C@H]4C[C@@H]34)[C@@H]2C1=O)c1ccc(C(F)(F)F)cc1` [ST-246, reference compound], the IC50 in series [1] is 0.01 ± 0.003 µM. In series [2], this molecule yielded a CC50 of 1280 ± 202 µM.
As for `CC(N)C12CC3CC(CC(C3)C1)C2` (stereo not drawn) [Rimantadine, reference compound], the IC50 in series [3] was 67 ± 4.9 µM. Also, the CC50 in series [4] came out at 335 ± 27 µM.
In the case of `CC1(C)[C@@H]2CC[C@@]1(C)[C@H](OCCCN1CCOCC1)C2` (racemic) [Compound 7b, (±)-4-(3-(1,7,7-trimethylbicyclo(2.2.1)heptan-2-yloxy)propyl)morpholine], the IC50 in [3] was found to be 24.2 ± 3.1 µM. For the same molecule, the results for the CC50 in [4], in [5] and in series [2] were 562 ± 48.2 µM, 1440 ± 28.4 µM and 174 ± 11.9 µM, respectively.
In series [5], `CN[C@H]1CC[C@@H](c2ccc(Cl)c(Cl)c2)c2ccccc21` [Sertraline, sertraline, reference compound] yielded a CC50 of 408 ± 35.9 µM.
As to `CC1(C)[C@@H]2CC[C@@]1(C)[C@H](OCCN1CCCCC1)C2` (racemic) [Compound 3a, (±)-1-(2-(1,7,7-Trimethylbicyclo(2.2.1)heptan-2-yloxy)ethyl)piperidine], the IC50 in series [3] is 64.8 ± 5.9 µM; in series [6], 6.3 ± 0.3 µM; in series [7], 942 ± 18.8 µM; in series [8] (Zaire ebolavirus, Vero), 15.2 ± 2.1 µM; in series [9], 5 ± 0.8 µM. The CC50 in series [4] is over 1130 µM; in series [5], 942 ± 18.8 µM; in [10], 55.9 ± 12.2 µM; in series [11], 151 ± 18.8 µM.
In the case of `CN1CCN(CCO[C@@H]2C[C@H]3CC[C@]2(C)C3(C)C)CC1` (racemic) [Compound 5a, (±)-1-Methyl-4-(2-(1,7,7-trimethylbicyclo(2.2.1)heptan-2-yloxy)ethyl)piperazine], the IC50 in series [3] turned out to be 13.2 ± 2 µM; in series [12] it was 85.6 ± 1.8 µM. Besides, the CC50 in series [4] amounted to 28.5 ± 1.2 µM; in series [5], 653 ± 14.3 µM; in series [2], 100 ± 6.1 µM.
Take `CC1(C)[C@@H]2CC[C@@]1(C)[C@H](OCCN1CCCCCC1)C2` (racemic) [Compound 8a, (±)-1-(2-(1,7,7-Trimethylbicyclo(2.2.1)heptan-2-yloxy)ethyl)azepane]: the IC50 in series [3] was determined as 35.3 ± 5 µM; in series [6], 112 ± 3.6 µM; in series [12], 90.2 ± 3.6 µM; in series [7] it was 361 ± 10.8 µM. In addition, the CC50 was 50.5 ± 4.5 µM in series [4], 721 ± 14.4 µM in series [5] and 19.1 ± 2.5 µM in series [2].
Consider `CC1CCN(CCC(=O)O[C@@H]2C[C@@H]3CC[C@@]2(C)C3(C)C)CC1` [Ib], for which the IC50 is 15.3 µM in [13], 54.3 µM in [14] and 2.2 µM in series [15].
For the molecule `CC1CCN(CCCO[C@@H]2C[C@H]3CC[C@]2(C)C3(C)C)CC1` (racemic) [Compound 4b, (±)-4-Methyl-1-(3-(1,7,7-trimethylbicyclo(2.2.1)heptan-2-yloxy)propyl)piperidine], the IC50 in series [3] was 69.7 ± 8.4 µM; in series [12] it was 96.1 ± 3.4 µM. The CC50 in series [4] came out at 491 ± 32.2 µM; in series [5], 141 ± 3.4 µM; in series [2], 40.9 ± 2.7 µM.
Take `CC1(C)[C@@H]2CC[C@@]1(C)[C@H](OCCCN1CCCCC1)C2` (racemic) [Compound 3b, (±)-1-(3-(1,7,7-Trimethylbicyclo(2.2.1)heptan-2-yloxy)propyl)piperidine]: the IC50 in [3] was found to be 347 ± 41.1 µM; in [6], 473 ± 11.4 µM; in [12] it was 170 ± 3.8 µM; in [7], 946 ± 22.7 µM. In addition, the results for the CC50 in series [4], in [5] and in series [2] were 950 ± 52.5 µM, 2120 ± 49.2 µM and 140 ± 8.7 µM, respectively.
`CC1(C)[C@H]2CC[C@]1(C)[C@H](OC(=O)CCN1CCOCC1)C2` [Id]: the IC50 in series [13] is 12.2 µM; in [16], 3.4 µM.
On to `CC1(C)[C@@H]2CC[C@@]1(C)[C@H](OCCCN1CCN(Cc3ccccc3)CC1)C2` (racemic) [Compound 6b, (±)-1-Benzyl-4-(3-(1,7,7-trimethylbicyclo(2.2.1)heptan-2-yloxy)propyl)piperazine], for which the results for the IC50 in series [3], in [6] and in [12] were over 8 µM, 67.5 ± 2.7 µM and 124 ± 2.7 µM, respectively. Also, the CC50 in series [4] was found to be 10.8 ± 0.8 µM; in series [5], 148 ± 5.4 µM; in series [2], 21.3 ± 2.2 µM.
`Nc1ccn(C[C@@H](CO)OCP(=O)(O)O)c(=O)n1` [Cidofovir, reference compound]: the IC50 in series [1] turned out to be 40 ± 1.2 µM. This molecule also returned a CC50 in series [2] of 475 ± 30.1 µM.
In the case of `CC1(C)[C@@H]2CC[C@@]1(C)[C@H](OCCN1CCCC1)C2` (racemic) [Compound 2a, (±)-1-(2-(1,7,7-Trimethylbicyclo(2.2.1)heptan-2-yloxy)ethyl)pyrrolidine], the IC50 in [3] stood at 45.3 ± 5.2 µM; in series [6], 0.12 ± 0.04 µM; in [12], 73.6 ± 1.9 µM; in [7], 123 ± 4 µM; in series [8] (Zaire ebolavirus, Vero) it was 18.3 ± 3.1 µM; in [9], 9.1 ± 1.2 µM. The CC50 in [4] is over 1190 µM; in series [5], 497 ± 8 µM; in [10] it was 231 ± 16.5 µM; in series [11] it was 358 ± 27.8 µM.
For the molecule `CC1(C)[C@@H]2CC[C@@]1(C)[C@H](OCCN1CCOCC1)C2` (racemic) [Compound 7a, (±)-4-(2-(1,7,7-Trimethylbicyclo(2.2.1)heptan-2-yloxy)ethyl)morpholine], the IC50 turned out to be 252 ± 31.1 µM in [3]; 0.6 ± 0.2 µM in series [6]; 150 ± 3.7 µM in series [12]; 935 ± 26.2 µM in series [7]; 5.63 µM in [8] (Zaire ebolavirus, Vero); 5.6 ± 0.9 µM in series [8]. Besides, the half-maximal inhibitory concentration (IC50) in [9] stood at 14.8 ± 1.9 µM. Besides, the results for the CC50 in series [4], in [5] and in series [11] were 385 ± 19.7 µM, 860 ± 22.4 µM and 1160 ± 56.1 µM, respectively.
Regarding `CC1CCN(CCO[C@@H]2C[C@H]3CC[C@]2(C)C3(C)C)CC1` (racemic) [Compound 4a, (±)-4-Methyl-1-(2-(1,7,7-trimethylbicyclo(2.2.1)]heptan-2-yloxy)ethyl)piperidine], the 50% inhibitory concentration (IC50) in series [3] amounted to 37.9 ± 5.6 µM; in [6], 1.3 ± 0.1 µM; in series [12] it was 60.8 ± 1.8 µM; in [7], 111 ± 3.6 µM. Also, the “IC50 EBOV” value in [8] is given as “did not show antiviral activity”. Further, the CC50 in series [4] was over 1070 µM; in [5], 447 ± 10.7 µM.
`CC1(C)[C@@H]2CC[C@@]1(C)[C@H](OCCN1CCN(Cc3ccccc3)CC1)C2` (racemic) [Compound 6a, (±)-1-Benzyl-4-(2-(1,7,7-trimethylbicyclo(2.2.1)heptan-2-yloxy)ethyl)piperazine]: the IC50 in [3] was 3.4 ± 0.5 µM. The figures for the CC50 in series [4], in series [5] and in series [2] were 33.7 ± 2.8 µM, 575 ± 11.2 µM and 14 ± 1.7 µM, respectively.
Take `CN1CCN(CCCO[C@@H]2C[C@H]3CC[C@]2(C)C3(C)C)CC1` (racemic) [Compound 5b, (±)-1-Methyl-4-(3-(1,7,7-trimethylbicyclo(2.2.1)heptan-2-yloxy)propyl)piperazine]: in series [3], the IC50 is over 37.4 µM. The CC50 is 51 ± 4.1 µM in series [4], 109 ± 3.4 µM in [5] and 64.2 ± 3.1 µM in series [2].
Turning to `CN1CCN(CCC(=O)O[C@@H]2C[C@@H]3CC[C@@]2(C)C3(C)C)CC1` [Ic], the figures for the IC50 in series [13] and in [16] were 1.9 µM and 64.8 µM, respectively.
In the case of `CC1(C)[C@H]2CC[C@]1(C)[C@H](OC(=O)CCN1CCCCC1)C2` [Ia], the IC50 in [13] was 7.8 µM; in series [14], 47.5 µM; in [15] it was 3.7 µM; in series [16], 121 µM.
With `CC1(C)[C@@H]2CC[C@@]1(C)[C@H](OCCCN1CCCCCC1)C2` (racemic) [Compound 8b, (±)-1-(3-((1,7,7-Trimethylbicyclo(2.2.1)heptan-2-yloxy)propyl)azepane], in series [3], the IC50 came out at 320 ± 36.9 µM. The CC50 in series [4] stood at 374 ± 22.8 µM; in [5] it was 704 ± 10.3 µM; in series [2] it was 23.7 ± 2.7 µM.
In the case of `NC(=O)c1ncn([C@@H]2O[C@H](CO)[C@@H](O)[C@H]2O)n1` [Ribavirin, reference compound], in series [3], the IC50 worked out at 24.6 ± 3.7 µM. The molecule further returned a CC50 in series [4] of over 2000 µM.
